Test results from patent US20210038579A1, “Treatment Of Patients With Classic Fabry Disease” (Amicus Therapeutics, Inc., priority 2018, published 2021).
Where a chain is given by its changes, count along the chain named.

How the values were obtained:
Test in all cases: HEK assay: α-Gal A activity in HEK-293 cell lysate with migalastat
Type in all cases: cell-based
[1] = target: T1, α-Gal A mutant form p.Ile270Thr (c.809 T > C) (Homo sapiens, UniProt P06280, I270T)
T1 construct: expressed in transfected cells; host or cells: HEK-293
T1 sequence (P06280 32-429 I270T): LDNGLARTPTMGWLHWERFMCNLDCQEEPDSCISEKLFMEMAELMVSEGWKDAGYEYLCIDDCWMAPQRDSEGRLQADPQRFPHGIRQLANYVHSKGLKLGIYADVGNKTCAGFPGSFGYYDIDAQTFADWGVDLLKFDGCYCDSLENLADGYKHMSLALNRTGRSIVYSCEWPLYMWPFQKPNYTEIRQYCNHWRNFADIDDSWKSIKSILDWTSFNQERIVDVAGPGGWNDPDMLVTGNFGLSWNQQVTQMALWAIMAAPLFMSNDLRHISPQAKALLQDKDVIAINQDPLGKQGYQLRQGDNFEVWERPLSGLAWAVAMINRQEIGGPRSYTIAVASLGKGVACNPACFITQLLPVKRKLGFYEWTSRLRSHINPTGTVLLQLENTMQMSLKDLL
Experimental: (§1) Such mutations are also referred to herein as “HEK assay amenable” mutations.
(§2) In this assay, cDNA constructs are created. The corresponding α-Gal A mutant forms are transiently expressed in HEK-293 cells. Cells are then incubated±migalastat (17 nM to 1 mM) for 4 to 5 days. After, α-Gal A levels are measured in cell lysates using a synthetic fluorogenic substrate (4-MU-α-Gal) or by western blot. This has been done for known disease-causing missense or small in-frame insertion/deletion mutations.

[2] = target: T2, α-Gal A mutant form p.Leu243Phe (c.729 G > C) (Homo sapiens, UniProt P06280, L243F)
T2 construct: expressed in transfected cells; host or cells: HEK-293
T2 sequence (P06280 32-429 L243F): T1 sequence (P06280 32-429 I270T) with L212F, T239I
Experimental: as §1, §2

[3] = target: T3, α-Gal A mutant form p.Leu36Trp (c.107 T > G) (Homo sapiens, UniProt P06280, L36W)
T3 construct: expressed in transfected cells; host or cells: HEK-293
T3 sequence (P06280 32-429 L36W): T1 sequence (P06280 32-429 I270T) with L5W, T239I
Experimental: as §1, §2

[4] = target: T4, α-Gal A mutant form p.Met187Ile (c.561 G > A) (Homo sapiens, UniProt P06280, M187I)
T4 construct: expressed in transfected cells; host or cells: HEK-293
T4 sequence (P06280 32-429 M187I): T1 sequence (P06280 32-429 I270T) with M156I, T239I
Experimental: as §1, §2

[5] = target: T5, α-Gal A mutant form p.Met284Thr (c.851 T > C) (Homo sapiens, UniProt P06280, M284T)
T5 construct: expressed in transfected cells; host or cells: HEK-293
T5 sequence (P06280 32-429 M284T): T1 sequence (P06280 32-429 I270T) with T239I, M253T
Experimental: as §1, §2

[6] = +10 μM migalastat, HEK-293 cell lysate, mean ± SEM, n = 20
[7] = HEK293, 10 μM migalastat minus baseline, read-out: Absolute increase at 10 μM (% WT)

## OC[C@H]1NC[C@H](O)[C@@H](O)[C@H]1O [migalastat]
[1]; 10 μM migalastat
  α-Gal A activity at 10 μM (fold over baseline): 6.73 fold over baseline
[1]; [6]
  +Migalastat α-Gal A activity: 12416 ± 377 nmol/mg/h
  +Migalastat α-Gal A activity % WT: 42.8 ± 3.0 % WT
[1]; [7]
  activation at 10 µM: 36.5%
[2]; 10 μM migalastat
  α-Gal A activity at 10 μM (fold over baseline): 5.33 fold over baseline
[2]; [6]
  +Migalastat α-Gal A activity: 14370 ± 618 nmol/mg/h
  +Migalastat α-Gal A activity % WT: 42.3 ± 1.4 % WT
[2]; [7]
  activation at 10 µM: 34.4%
[3]; 10 μM migalastat
  α-Gal A activity at 10 μM (fold over baseline): 21.49 fold over baseline
[3]; [6]
  +Migalastat α-Gal A activity: 5182 ± 463 nmol/mg/h
  +Migalastat α-Gal A activity % WT: 16.6 ± 2.1 % WT
[3]; [7]
  activation at 10 µM: 15.9%
[4]; 10 μM migalastat
  α-Gal A activity at 10 μM (fold over baseline): 6.10 fold over baseline
[4]; [6]
  +Migalastat α-Gal A activity: 10824 ± 555 nmol/mg/h
  +Migalastat α-Gal A activity % WT: 30.7 ± 1.1 % WT
[4]; [7]
  activation at 10 µM: 25.6%
[5]; 10 μM migalastat
  α-Gal A activity at 10 μM (fold over baseline): 8.33 fold over baseline
[5]; [6]
  +Migalastat α-Gal A activity: 5050 ± 268 nmol/mg/h
  +Migalastat α-Gal A activity % WT: 14.3 ± 0.6 % WT
[5]; [7]
  activation at 10 µM: 12.6%
